Results: article PMC11096368, “Transcriptomic signature, bioactivity and safety of a non-hepatotoxic analgesic generating AM404 in the midbrain PAG region” (Scientific Reports, 2024)

Tests used:
[1] = 28-day oral toxicity study with 14-day recovery (GLP); format: in vivo, dog; settings: both sexes, Beagle, dog, in vivo, oral; given T.I.D. for 28 days; read-out: No adverse effect level (NOAEL)
Procedure: (§1) SRP-001 was supplied by Olon Ricerca Bioscience as an off-white powder. The test article was then prepared into dosing suspensions for oral administration via gavage (Calvert Labs/Altasciences, Scott Township, PA USA). Thirty-two experimentally naïve Beagle dogs (16 males and 16 females), 8–9 months old and weighing 6.7–10.5 kg for males and females at the outset of the study, were administered 0, 165, 330, or 495 mg/kg/d. Animals were dosed three times daily (3–5 h between doses) for 28 consecutive days. Prior to this dosing schedule, the dosing was initiated with once daily dosing at 0, 100, 300, or 900 mg/kg at a dose volume of 5 to 10 ml/kg. Due to adverse clinical signs noted following dosing of all groups at a dose volume of 10 ml/kg, dosing of the animals was suspended on day 2 for males and day 1 for females. The study was restarted with T.I.D. dosing in lower dose volume to reduce vehicle-related toxicity.
(§2) In-life data from the initial start of the study using once daily dosing were not included in the report but are maintained in the study file. Following the restart of the study, the study was conducted as follows. Mortality/morbidity was performed twice daily and once prior to the scheduled sacrifice. Animals were observed prior to each dose administration and 1–3 h after each dose administration. Animals were also observed once daily on non-dosing days and once prior to scheduled sacrifice. Body weights were recorded prior to randomization/selection, prior to the first dose administration on day 1 and weekly thereafter. Food consumption was determined daily. Ophthalmology examinations and electrocardiograms were performed before treatment initiation and during the last week of dosing. Blood for evaluation of hematology, coagulation and clinical chemistry and urine for urinalysis was collected prior to treatment initiation and on days 29 and 43. Blood for toxicokinetic evaluation was collected at selected timepoints on days 1 and 28. All surviving animals were sacrificed on day 29 or day 43. Selected tissues were harvested at necropsy, selected organs weighed, and selected tissues evaluated microscopically.
(§3) Due to the limited magnitude of the changes in hematology parameters and the corresponding changes in reticulocytes, this finding was not considered adverse.
(§4) This finding was indicative of the biliary system starting to be overwhelmed and was considered adverse. Other microscopic findings of the liver included Kupffer cell pigment, Kupffer cell erythrophagocytosis, and Kupffer cell hypertrophy/hyperplasia. The Kupffer cell changes were thought to be, at least in part, due to phagocytosis of erythrocytes resulting in the accumulation of cytoplasmic pigment and increased demand for Kupffer cells resulting in hypertrophy/hyperplasia. These microscopic changes correlated with increased liver organ weights. Microscopic evaluation also identified thyroid gland follicular cell hypertrophy.
(§5) Only microscopic changes in Kupffer cell pigment and erythrophagocytosis and minimal increased erythroid cellularity of the bone marrow were still present in Group-4 animals following the recovery period. Exposure to SRP-001 was dose-dependent and generally dose-proportional to greater than dose-proportional from 165 to 330 mg/kg/d and less than dose-proportional from 330 to 495 mg/kg/d. Exposure to SRP-001 following 28 consecutive days of oral dosing was 2 to 5 times less than exposure observed on day 1. Based on the clinical signs, microscopic changes, and clinical pathology changes, the no-adverse-effect level for SRP-001 was 330 mg/kg/d when given T.I.D. for 28 d.

[2] = system: beagle dogs; test: as above; format: in vivo, dog
Procedure: as §1, §2, §3, §4, §5

[3] = system: Sprague–Dawley rats; test: CFA-induced inflammatory pain / Hargreaves thermal sensitivity assay; format: in vivo; settings: high dose (100 mg/kg)
Source text: In these same cohorts of animals, we simultaneously measured their thermal nociception to hyperalgesia with the Hargreaves test using the plantar test apparatus (Ugo Basile 37,570). In this experimental setup, the rodents are placed in plastic cages on top of a glass surface, and their hind paws are subjected to an infrared heat stimulus. One hind paw at a time is stimulated with the light source (noxious stimuli) until the animal retracts the paw from the glass surface because of the stimulus. Baseline withdrawal thresholds (latency) of both the right and left paws were recorded, and animals were assigned to different treatment groups so that each group had approximately equal withdrawal threshold averages in both paws. After baseline testing, treated animals received subcutaneous plantar injection (150 μl) of 50% CFA into the left hind paw, while control animals received a plantar injection (150 µl) of 0.9% NaCl into their left hind paw. CFA induces inflammation, resulting in a left hind paw that is hypersensitive to the thermal stimulus, while the right hind paw serves as a within-subject baseline for each animal. To obtain Hargreaves withdrawal latency recordings, each animal was placed in an individual plastic observation compartment on a glass platform, which provided access to the plantar surface of the hind paws from underneath. After acclimation to the environment for 30 min, thermal hypersensitivity was assessed by stimulating the mid-plantar area of each hind paw with a bright light source attached to the meter (Ugo Basile 37,570) until animals withdrew the paw from the surface. The withdrawal threshold was defined as the average time (s) required for the rat to withdraw the stimulated paw. A brisk withdrawal of the paw (often followed by a sustained retraction and/or licking) was considered a positive response, but paw withdrawals due to locomotion or weight shifting were not counted. The Hargreaves studies were conducted with the plantar stimulation device that automatically registers the time (s) necessary to elicit paw withdrawal in order to eliminate bias in determining paw withdrawal thresholds. A cutoff of 20 s is pre-programmed so that the light source shuts off at that maximal period so as to not induce any burns on the plantar surface of the rodents. The Hargreaves test permits measurement of ipsilateral and contralateral heat thresholds, allowing each animal to serve as its own internal control in unilateral pain models. In addition, the Hargreaves test enables quantification of heat thresholds in unrestrained animals, reducing the likelihood of stress-induced responses.

[4] = both, Beagle, dog, in vivo, po, 28 d
[5] = young male and young female rats

Compound	NOAEL at 28 d [1] [mg/kg/day]	Body weights, food consumption, ophthalmology, electrocardiology, coagulation, urinalysis ([2]; 28 days)	Reversibility after 14-day recovery period ([2]; both, Beagle, dog, in vivo, 14 d)	Doses without treatment-related adverse effects [2, 4]	Exposure after 28 consecutive days relative to day 1 [2, 4]	Clinical chemistry parameters ([2]; dog, in vivo)	Clinical signs ([2]; dog, in vivo)	Hematology parameters ([2]; dog, in vivo)	Reversibility after 14-day recovery period ([2]; dog, in vivo)	Analgesia in Hargreaves assay (paw withdrawal latencies) ([3]; aged male rats)	Analgesia in Hargreaves assay (paw withdrawal latencies) [3, 5]
CCN(CC)C(=O)c1ccccc1S(=O)(=O)NCC(=O)Nc1ccc(O)cc1 [SRP-001, N,N-diethyl-2-[[2-(4-hydroxyanilino)-2-oxo-ethyl]sulfamoyl]benzamide]	330	No SRP-001 related changes	nearly all SRP-001-related changes observed on day 29 were reversible	up to 330 mg/kg/day	2-5 times less	increases in triglycerides and alkaline phosphatase and decreases in cholesterol	emesis, loose feces, and salivation	decreases in red blood cells, hemoglobin, hematocrit, and mean corpuscular hemoglobin concentration	nearly all SRP-001 related changes observed on Day 29 were reversible	significant analgesia	significant analgesia
CC(=O)Nc1ccc(O)cc1 [ApAP, acetaminophen, reference compound]	–	–	–	–	–	–	–	–	–	significant analgesia	significant analgesia
